Values joined by “and” are separate entries in the source; they are usually repeats but may differ in a detail not shown here. Identical values can stand only once. “Also recorded” adds a separate entry of the source. Like-named read-outs stand apart in the source and are kept apart here.

Experiment [1] addresses T1, RbmC2 β-prism domain (Vibrio cholerae, UniProt Q9KTH2). Kind of experiment: biochemical. The class given is binding.
The next experiment deals with RbmC1 β-prism domain (Vibrio cholerae, UniProt Q9KTH2). Kind of experiment: biochemical. It counts as binding.
The target in experiment [2] is T2, VCC β-prism lectin domain (Vibrio cholerae serotype O1, UniProt P09545). Kind of experiment: biochemical. It counts as binding.
Experiment [3] addresses T1, RbmC2 β-prism domain. Kind of experiment: biochemical. It counts as binding. The following applies: RbmC2 β-prism affinity.
Experiment [4] addresses T2, VCC β-prism lectin domain. In words: biochemical. The class given is binding. This is another data set of the same source.
Experiment [5] concerns the target T2, VCC β-prism lectin domain. The following applies: read-out: VCC β-prism affinity; cited from earlier work.
The target of experiment [6] is RbmC2-GFPUV fusion (Vibrio cholerae El Tor strain N16961). In words: ITC.
Experiment [7] concerns the target RbmC1-GFPUV fusion (Vibrio cholerae El Tor strain N16961). In words: ITC.

For Asialofetuin, the Kd at RbmC2 β-prism domain [1] (read-out: RbmC2 β-prism affinity (apparent)) is 0.0184 µM; on RbmC1 β-prism domain (read-out: RbmC1 β-prism affinity (apparent)), 0.0159 µM.

As for `CC(=O)N[C@H]1C(O)O[C@H](CO)[C@@H](O[C@@H]2O[C@H](CO)[C@H](O)[C@H](O)[C@H]2O)[C@@H]1O` (stereo partly drawn) [LacNAc, N-acetyl-D-lactosamine], the “RbmC2 β-prism binding” value on RbmC2 β-prism domain [1] was “Did not bind; also recorded: unable to observe binding”. For the same molecule, the “RbmC1 β-prism binding” value on RbmC1 β-prism domain was “Did not bind; also recorded: unable to observe binding”. In addition, in experiment [2], the “VCC β-prism binding” value is given as “Did not bind; also recorded: unable to detect binding”.

Take `CC(=O)N[C@H]1[C@H](O[C@H]2[C@H](O)[C@@H](NC(C)=O)C(O)O[C@@H]2CO)O[C@H](CO)[C@@H](O[C@@H]2O[C@H](CO[C@H]3O[C@H](CO)[C@@H](O)[C@H](O)[C@@H]3O[C@@H]3O[C@H](CO)[C@@H](O)[C@H](O)[C@H]3NC(C)=O)[C@@H](O)[C@H](O[C@H]3O[C@H](CO)[C@@H](O)[C@H](O)[C@@H]3O[C@@H]3O[C@H](CO)[C@@H](O)[C@H](O)[C@H]3NC(C)=O)[C@@H]2O)[C@@H]1O` (some centres unmarked) [NGA2, GlcNAcβ1-2Manα1-6(GlcNAcβ1-2Manα1–3)Manβ1-4GlcNAcβ1-4GlcNAc]: the figures for the Kd (on RbmC2 β-prism domain [3]; in experiment [4]) were 0.0015 ± 0.0005 µM and 0.2 µM, respectively.

For `CC(=O)N[C@H]1[C@H](O[C@@H]2[C@@H](OC[C@H]3OC(O)[C@@H](O)[C@@H](O[C@H]4O[C@H](CO)[C@@H](O)[C@H](O)[C@@H]4O[C@@H]4O[C@H](CO)[C@@H](O)[C@H](O)[C@H]4NC(C)=O)[C@@H]3O)O[C@H](CO)[C@@H](O)[C@@H]2O)O[C@H](CO)[C@@H](O)[C@@H]1O` (some centres unmarked) [Pentasaccharide, N-linked core pentasaccharide], at RbmC2 β-prism domain [3], the Kd was 0.0011 µM and 0.0015 µM.

As for `OC[C@H]1O[C@H](OC[C@H]2OC(O)[C@@H](O)[C@@H](O[C@H]3O[C@H](CO)[C@@H](O)[C@H](O)[C@@H]3O)[C@@H]2O)[C@@H](O)[C@@H](O)[C@@H]1O` (stereo partly drawn) [Mannotriose, 1,3-α-1,6-α-D-mannotriose], the Kd on RbmC2 β-prism domain [1] (RbmC2 β-prism affinity) came out at 4.1 µM; on RbmC1 β-prism domain (RbmC1 β-prism affinity) it was 0.6 µM; in experiment [2] it was 229 µM.

As for `CC(=O)N[C@H]1[C@H](O[C@@H]2C(O)O[C@H](CO)[C@@H](O)[C@@H]2O)O[C@H](CO)[C@@H](O)[C@@H]1O` (stereo partly drawn) [GlcNAc-Man, N-acetylglucosaminyl-β-1,2-mannose], the Kd on RbmC2 β-prism domain [1] (RbmC2 β-prism affinity) was found to be 159 µM.

Take `CO[C@H]1O[C@H](CO)[C@@H](O)[C@H](O)[C@@H]1O` [Me-α-mannose, methyl α-D-mannopyranoside]: the Kd in experiment [5] was 2700 µM; on RbmC2 β-prism domain [1] (RbmC2 β-prism affinity), 179 µM and 503 µM; on RbmC1 β-prism domain (RbmC1 β-prism affinity), 503 µM and 179 µM.

B1: bovine asialofetuin (natural protein)
chain: IPLDPVAGYKEPACDDPDTEQAALAAVDYINKHLPRGYKHTLNQIDSVKVWPRRPTGEVYDIEIDTLETTCHVLDPTPLANCSVRQQTQHAVEGDCDIHVLKQDGQFSVLFTKCDSSPDSAEDVRKLCPDCPLLAPLNDSRVVHAVEVALATFNAESNGSYLQLVEISRAQFVPLPVSVSVEFAVAATDCIAKEVVDPTKCNLLAEKQYGFCKGSVIQKALGGEDVRVTCTLFQTQPVIPQPQPDGAEAEAPSAVPDAAGPTPSAAGPPVASVVVGPSVVAVPLPLHRAHYDLRHTFSGVASVESSSGEAFHVGKTPIVGQPSIPGGPVRLCPGRIRYFKI
modifications: three glycosylation sites occupied by heterogeneous mixtures of bi- and tri-antennary glycans (asialo form)
For the molecule B1, the results for the Kd in experiment [6] and in experiment [7] were 0.0184 µM and 0.0159 µM, respectively.
